In article PMC8954816, “Quantitative Analysis of Daporinad (FK866) and Its In Vitro and In Vivo Metabolite Identification Using Liquid Chromatography-Quadrupole-Time-of-Flight Mass Spectrometry” (Molecules, 2022):
Read-outs that look alike come from different tables or passages of the source.

Columns and labels:
[1] = Intravenous pharmacokinetic study of Daporinad in mice (plasma, LC-qTOF-MS, NCA); assay type: in vivo, mouse; conditions: for AUC(0-t) / Cmax / clearance / half-life / Vd: male, ICR; for AUC(0-t) / Cmax / clearance / half-life: n = 3; for Vd: n = 3, read-out: Vss
Experimental: The developed LC-qTOF-MS method was successfully applied to obtain the PK parameters of Daporinad in mouse plasma following IV administration at the doses of 5, 10 and 30 mg/kg. The concentrations of most PK samples were within the qualified calibration curve except some PK samples at early time point samples. Therefore, early time point PK samples were diluted appropriately with blank mouse plasma to ensure that every sample concentration was within the calibration curve range. The PK parameters were calculated with the non-compartmental analysis (NCA) using WinNonlin (version 8.0.0) and the results are summarized in Table 4.
An aliquot of 4 µL of STD or QC working solutions were spiked into 20 µL of blank mouse plasma, and 4 µL of make-up DMSO was spiked into 20 µL of the mouse PK sample to make it the same matrix condition as the STD and QC sample. Then, 100 µL of ISTD solution was added to STD, QC and the study sample. Then, the samples were vortexed for about 1 min and centrifuged at 10,000× g rpm for 5 min. After centrifugation, 75 µL of supernatant was taken and mixed with 75 µL of DW. After that, the aliquot was transferred to an LC vial for the LC-qTOF-MS analysis.
Male ICR mice (30 ± 3 g) were purchased from the Samtako biokorea co. (Pocheon, Gyeonggi, Korea) and housed in groups of 6~8 per cage and given standard rodent chow. The animals were fasted overnight with free access to water for at least 12 h before administration. Mice were distributed into three different dosing groups (n = 3 for each dosing group; 5, 10 and 30 mg/kg). The blood sampling time points were 2, 10, 30, 60, 120, 240 and 420 min after administration. The sampling blood samples were centrifuged at 12,000× g rpm for 5 min and the plasma was transferred to another tube and then stored at −20 °C until further analysis. All experiment performed on the mouse were approved by abiding the animal care protocol (no. CNU-01104) from Chungnam National University. The procedures were abided by the guidelines established by the Association for Assessment and Accreditation of Laboratory Animal Care International (AAALAC International).
Data acquisition and LC-qTOF-MS operation was conducted using Analyst® TF Version 1.6 (Sciex, Foster City, CA, USA). MultiQuant® Version 2.1.1 (Sciex, Foster City, CA, USA) was used for the peak integration for Daporinad quantification. PeakView® Version 2.2 (Sciex, Foster City, CA, USA) and MetabolitePilot™ Version 2.0.2 (Sciex, Foster City, CA, USA) were used for the structural elucidation of Daporinad metabolites. The descriptive statistics for the qualification studies were calculated with Excel 2015 (Microsoft). Pharmacokinetic parameters were calculated in a non-compartmental analysis using WinNonlin® version 8.0.0 (Certara, Princeton, NJ, USA).

[2] = Preliminary stability tests for Daporinad in mouse plasma; assay type: in vitro ADME; conditions: for Freeze–thaw stability, mean accuracy: 3 cycles; for Freeze–thaw stability, mean accuracy / Short-term stability, mean accuracy: n = 3; for Short-term stability, mean accuracy: 4 h
Experimental: Daporinad was stable in mouse plasma for […] three cycles of freeze–thawing and also stable during at least 2 weeks at −80 °C storage condition.
Three levels of QC were used for the short-term, freeze–thaw and long-term stability assessments. The short-term stability assessment was carried out at RT for 4 h, and the long-term stability samples were kept frozen at −80 °C for 2 weeks. The freeze–thaw stability was evaluated over three cycles of freezing (−80 °C) and thawing (RT). The stability test results were evaluated by confirming that the mean accuracy (%) of the nominal value which should be within ±25% acceptance criteria.

[3] = as above; assay type: in vitro ADME; conditions: 14 days, −20 °C, n = 3
[4] = mouse plasma, dose range 10 to 30 mg/kg

Freeze–thaw stability, mean accuracy ([2]; mouse plasma, −80 °C, High QC (1820 ng/mL)): 116%
Freeze–thaw stability, mean accuracy ([2]; mouse plasma, −80 °C, Low QC (15.0 ng/mL)): 105%
Freeze–thaw stability, mean accuracy ([2]; mouse plasma, −80 °C, Medium QC (165 ng/mL)): 117%
Short-term stability, mean accuracy ([2]; mouse plasma, RT, High QC (1820 ng/mL)): 104%
Short-term stability, mean accuracy ([2]; mouse plasma, RT, Low QC (15.0 ng/mL)): 103%
Short-term stability, mean accuracy ([2]; mouse plasma, RT, Medium QC (165 ng/mL)): 102%
Time stable in mouse plasma at room temperature ([2]; mouse plasma, RT): at least 4 h
Time stable in mouse plasma at storage condition ([2]; mouse plasma, −80 °C storage): at least 2 weeks
Freeze–thaw stability in mouse plasma ([2]; −80 °C, three cycles of freeze–thawing): stable
Long-term stability, mean accuracy ([3]; High QC (1820 ng/mL)): 91.4%
Long-term stability, mean accuracy ([3]; Low QC (15.0 ng/mL)): 111%
Long-term stability, mean accuracy ([3]; Medium QC (165 ng/mL)): 84.5%
Structure (SMILES): O=C(/C=C/c1cccnc1)NCCCCC1CCN(C(=O)c2ccccc2)CC1 [Daporinad]
AUC(0-t) ([1]; mouse plasma, 5 mg/kg): 2860 ng·h/mL
Cmax ([1]; mouse plasma, 5 mg/kg): 5480 ± 427 ng/mL
clearance ([1]; mouse plasma, 5 mg/kg): 29.3 ± 3.7 mL/min/kg
half-life ([1]; mouse plasma, 5 mg/kg): 52.9 ± 7.3 min
Vd ([1]; mouse plasma, 5 mg/kg): 0.897 ± 0.199 L/kg
AUC(0-t) ([1]; mouse plasma, 10 mg/kg): 5950 ng·h/mL
Cmax ([1]; mouse plasma, 10 mg/kg): 14900 ng/mL
clearance ([1]; mouse plasma, 10 mg/kg): 28.1 ± 2.78 mL/min/kg
half-life ([1]; mouse plasma, 10 mg/kg): 50.5 ± 4.88 min
Vd ([1]; mouse plasma, 10 mg/kg): 0.647 ± 0.0915 L/kg
AUC(0-t) ([1]; mouse plasma, 30 mg/kg): 29400 ng·h/mL
Cmax ([1]; mouse plasma, 30 mg/kg): 48100 ng/mL
clearance ([1]; mouse plasma, 30 mg/kg): 17.9 ± 5.11 mL/min/kg
half-life ([1]; mouse plasma, 30 mg/kg): 40.8 ± 0.95 min
Vd ([1]; mouse plasma, 30 mg/kg): 0.536 ± 0.11 L/kg
Dose proportionality of Cmax and AUC ([1]; mouse plasma, dose range 5 to 10 mg/kg): dose proportional
Dose proportionality of AUC [1, 4]: supra-proportional
Dose proportionality of Cmax [1, 4]: dose-proportional
Clearance classification ([1]; mouse, 5 to 30 mg/kg): low to moderate clearance
